According to patent publication US9951025B2, “Halogenopyrazoles as inhibitors of thrombin” (VERSEON CORPORATION, priority 2013, dated 2018):
Non-standard residues stand in square brackets, D forms with d. No end group written: not given here. Oic = O=C(O)[C@@H]1C[C@@H]2CCCC[C@@H]2N1; Phe(4-Me) = Cc1ccc(C[C@H](N)C(=O)O)cc1

Key:
[1] = biological target: T1, Human thrombin (Homo sapiens, UniProt P00734); assay: thrombin protease inhibition assay, chromogenic substrate S-2238; format: biochemical; conditions: 3 nM human thrombin, 125 μM S-2238, 10 min pre-incubation, RT
T1 construct: purchased Haematologic Technologies Inc
Protocol: Compounds described herein can be assayed, by a variety of methods known in the art and described herein, for inhibition of biological activity, e.g., protease activity, of a variety of proteins, e.g., thrombin.
The thrombin activity reported herein (e.g., Table A) was obtained as follows. […] Thrombin was assayed in buffer containing 0.05 M Tris (pH 7.4), 0.015 M NaCl and 0.01% PEG-8000. The final concentration of enzyme used was 3 nM thrombin. […] All assays were performed in 96-well microtiter plates at room temperature (RT). […] Inhibitor IC50 values were determined by adding test compound as ten point, three-fold serial dilutions in buffer solution, as known in the art. The plate was read at 10 minutes after substrate addition. The IC50 was calculated by plotting the percent (%) inhibition against compound concentration and fitting the data to a constrained four parameter sigmoidal curve, as known in the art.

[2] = after 7 weeks of administration; cited from earlier work
[3] = tested on: glioma; conditions: systemic use, rat glioma models; cited from earlier work
[4] = tested on: malignant breast tumors; conditions: cited from earlier work
[5] = tested on: lung fibroblasts; conditions: mouse, in vivo; cited from earlier work
[6] = cited from earlier work
[7] = tested on: tumor; conditions: cited from earlier work
[8] = tested on: prostate cancer cell line PC-3; conditions: PC-3, concentration dependent manner; cited from earlier work
[9] = intrathecal, cited from earlier work
[10] = tested on: lung metastases; conditions: administered prior to cancer cell inoculation; cited from earlier work
[11] = in vivo; cited from earlier work

Row | Compound | IC50 [1] [nM] | other results
1 | COc1ccccc1C(=O)n1nc(-c2ccccc2)c(F)c1NCc1ccc(Cl)s1 [Compound 44, N-[(5-chlorothiophen-2-yl)methyl]-4-fluoro-1-(2-methoxybenzoyl)-3-phenyl-1H-pyrazol-5-amine] | < 100 | –
2 | COc1ccccc1C(=O)n1nc(NCc2ccc(Cl)s2)c(F)c1C1CCOCC1 [Compound 45, N-[(5-chlorothiophen-2-yl)methyl]-4-fluoro-1-(2-methoxybenzoyl)-5-(oxan-4-yl)-1H-pyrazol-3-amine] | > 1000 | –
3 | CC1(C(=O)n2nc(-c3ccccc3)c(F)c2NCc2ccc(Cl)s2)COC1 [Compound 46, N-[(5-chlorothiophen-2-yl)methyl]-4-fluoro-1-(3-methyloxetane-3-carbonyl)-3-phenyl-1H-pyrazol-5-amine] | > 1000 | –
4 | CC1(C(=O)n2nc(-c3ccccc3)c(F)c2NCc2ccc(Cl)s2)CCOCC1 [Compound 48, N-[(5-chlorothiophen-2-yl)methyl]-4-fluoro-1-(4-methyloxane-4-carbonyl)-3-phenyl-1H-pyrazol-5-amine] | < 100 | –
5 | O=C(c1ccoc1)n1nc(C2CCOCC2)c(F)c1NCc1ccc(Cl)s1 [Compound 49, N-[(5-chlorothiophen-2-yl)methyl]-4-fluoro-1-(furan-3-carbonyl)-3-(oxan-4-yl)-1H-pyrazol-5-amine] | < 100 | –
6 | O=C(c1ccoc1)n1nc(C2CCNCC2)c(F)c1NCc1ccc(Cl)s1 [Compound 50, N-[(5-chlorothiophen-2-yl)methyl]-4-fluoro-1-(furan-3-carbonyl)-3-(piperidin-4-yl)-1H-pyrazol-5-amine] | < 100 | –
7 | O=C(c1ccoc1)n1nc(-c2ccccc2)c(F)c1NCc1ccc(Cl)s1 [Compound 51, N-[(5-chlorothiophen-2-yl)methyl]-4-fluoro-1-(furan-3-carbonyl)-3-phenyl-1H-pyrazol-5-amine] | < 100 | –
8 | COCCOc1ccc(C(=O)n2nc(C3CCOCC3)c(F)c2NCc2ccc(Cl)s2)cc1 [Compound 52, N-[(5-chlorothiophen-2-yl)methyl]-4-fluoro-1-[4-(2-methoxyethoxy)benzoyl]-3-(oxan-4-yl)-1H-pyrazol-5-amine] | < 100 | –
9 | O=C(c1ccc(N2CCOCC2)cc1)n1nc(C2CCOCC2)c(F)c1NCc1ccc(Cl)s1 [Compound 53, N-[(5-chlorothiophen-2-yl)methyl]-4-fluoro-1-[4-(morpholin-4-yl)benzoyl]-3-(oxan-4-yl)-1H-pyrazol-5-amine] | < 100 | –
10 | O=C(c1ccsc1)n1nc(C2CCOCC2)c(F)c1NCc1ccc(Cl)s1 [Compound 54, N-[(5-chlorothiophen-2-yl)methyl]-4-fluoro-3-(oxan-4-yl)-1-(thiophene-3-carbonyl)-1H-pyrazol-5-amine] | < 100 | –
11 | COc1ccccc1C(=O)n1nc(NCc2ccc(Cl)s2)c(F)c1C1CCN(S(=O)(=O)c2cccc3c(N(C)C)cccc23)CC1 [Compound 55, N-[(5-chlorothiophen-2-yl)methyl]-5-(1-[5-(dimethylamino)naphthalen-1-yl]sulfonylpiperidin-4-yl)-4-fluoro-1-(2-methoxybenzoyl)-1H-pyrazol-3-amine] | > 1000 | –
12 | COc1ccccc1C(=O)N(Cc1ccc(Cl)s1)c1[nH]nc(-c2ccc3c(c2)CCCC3=O)c1F [Compound 56, N-[(5-chlorothiophen-2-yl)methyl]-N-[4-fluoro-3-(5-oxo-5,6,7,8-tetrahydronaphthalen-2-yl)-1H-pyrazol-5-yl]-2-methoxybenzamide] | > 1000 | –
13 | CN(C)c1cccc2c(S(=O)(=O)Nc3ccc(C(=O)n4nc(C5CCNCC5)c(F)c4NCc4ccc(Cl)s4)cc3)cccc12 [Compound 57, N-[4-(5-[(5-chlorothiophen-2-yl)methyl]amino-4-fluoro-3-(piperidin-4-yl)-1H-pyrazole-1-carbonyl)phenyl]-5-(dimethylamino)naphthalene-1-sulfonamide] | < 100 | –
14 | CN(C)c1cccc2c(S(=O)(=O)Nc3ccc(C(=O)n4nc(-c5ccccc5)c(F)c4NCc4ccc(Cl)s4)cc3)cccc12 [Compound 58, N-[4-(5-[(5-chlorothiophen-2-yl)methyl]amino-4-fluoro-3-phenyl-1H-pyrazole-1-carbonyl)phenyl]-5-(dimethylamino)naphthalene-1-sulfonamide] | < 100 | –
15 | COc1ccccc1C(=O)n1nc(-c2ccccn2)c(F)c1NCc1ccccc1 [Compound 59, N-benzyl-4-fluoro-1-(2-methoxybenzoyl)-3-(pyridin-2-yl)-1H-pyrazol-5-amine] | < 100 | –
16 | COc1ccccc1C(=O)n1nc(-c2ccccc2)c(F)c1NCc1ccccc1 [Compound 60, N-benzyl-4-fluoro-1-(2-methoxybenzoyl)-3-phenyl-1H-pyrazol-5-amine] | < 100 | –
17 | O=C(n1nc(C2CCOCC2)c(F)c1NCc1ccc(Cl)s1)C1(CO)CC1 [Compound 61, [1-(5-[(5-chlorothiophen-2-yl)methyl]amino-4-fluoro-3-(oxan-4-yl)-1H-pyrazole-1-carbonyl)cyclopropyl]methanol] | < 100 | –
18 | O=C(n1nc(-c2ccccc2)c(F)c1NCc1ccc(Cl)s1)C1(CO)CC1 [Compound 62, [1-(5-[(5-chlorothiophen-2-yl)methyl]amino-4-fluoro-3-phenyl-1H-pyrazole-1-carbonyl)cyclopropyl]methanol] | < 100 | –
19 | CC(=O)Nc1c(-c2ccccc2)cccc1S(=O)(=O)N[C@@H](CCCc1ccc(N)cn1)C(=O)N1CCC(=C(F)F)CC1 [SSR182289] | – | liver fibrogenesis [2]: decreased liver fibrogenesis significantly
20 | CC1CNc2c(cccc2S(=O)(=O)N[C@@H](CCCNC(=N)N)C(=O)N2CC[C@@H](C)C[C@@H]2C(=O)O)C1 (stereo partly shown) [argatroban] | – | survival time [3]: prolonged; tumor mass [3]: reduced
21 | CCCCCCOC(=O)NC(=N)c1ccc(NCc2nc3cc(C(=O)N(CCC(=O)OCC)c4ccccn4)ccc3n2C)cc1 [dabigatran etexilate] | – | invasion and metastasis of malignant breast tumors ([4]; mouse, in vivo): inhibited; reduction of tumor cells in the blood and liver micrometastases ([4]; mouse, in vivo): 50-60%; weight loss ([4]; treated mice, 4 weeks): no weight loss; profibrotic events in lung fibroblasts, including production of collagen and connective tissue growth factor [5]: reduced
22 | N=C(N)c1ccc(CNC(=O)[C@@H]2CCN2C(=O)[C@H](NCC(=O)O)C2CCCCC2)cc1 [melagatran] | – | kidney graft survival ([6]; at 3 months): drastically improved; ischemia reperfusion injury ([6]; kidney transplant model): greatly reduced
23 | [dR][Oic]P[dA][Phe(4-Me)] | – | overall tumor weight ([7]; compared to untreated mice): reduced; rate of tumor growth ([7]; mice dosed through drinking water): reduced; thrombin-stimulated invasion [8]: block
24 | hirudin | – | pain responses ([9]; for 7 days): curbed; development of neuropathic pain [9]: prevented; number of lung metastases [10]: dramatically reduced; disease severity [11]: dramatic improvement
